14 molecules from patent US20250206758A1, “SUBSTITUTED BRIDGED RING INHIBITOR, PREPARATION METHOD THEREFOR AND APPLICATION THEREOF” (SUZHOU ZELGEN BIOPHARMACEUTICALS CO., LTD., priority 2022, published 2025) can be followed below.

In data set [1] the test system is ERK phosphorylation in KRAS^G12D mutant cells (AGS). Kind of data set: AGS ERK phosphorylation inhibition experiment. The format is cell-based. The settings on record: 1 hour compound, hEGF 10 minutes. How it is done: (§1) KRAS^G12D mutant cells (such as GP2D, AGS, etc.) were seeded in a 384-well plate and cultured overnight in a 37° C., 5% CO2 incubator.
(§2) 200 nL of diluted compound was added with Echo 500 to a final DMSO concentration of 0.5%, and cultured in a 37° C., 5% CO2 incubator for 1 hour. Then hEGF was added for acting for 10 minutes.
(§3) The culture medium was discarded, and then cell fixative was added to fix the cells.
(§4) The cells were washed once with PBS, and then incubated with cold 100% methanol.
(§5) Methanol was removed and the cells were washed with PBS.
(§6) PBS was removed, and each well was added with Li-Cor blocking buffer, and blocked at room temperature for 1 hr.
(§7) The blocking solution was removed, and primary antibody mixture was added to each well, and incubated at […] 4° C. overnight.
(§8) The primary antibody mixture was removed, and the cells were washed by adding PBST for 3 times.
(§9) Secondary antibody mixture was added and incubated at room temperature in the dark for 45 min.
(§10) The secondary antibody mixture was removed, and the cells were washed by adding PBST for 3 times. Finally, PBST was suctioned out, and the plate was centrifuged upside down at 1000 rpm for 1 min.
(§11) The plate was read by Odyssey CLx.

Data set [2] relates to ERK phosphorylation in KRAS^G12D mutant cells (GP2D). Put plainly: GP2D ERK phosphorylation inhibition experiment. It is filed as cell-based. The settings on record: 1 hour compound, hEGF 10 minutes. Here is the method:
as §1, §2, §3, §4, §5, §6, §7, §8, §9, §10, §11

For another data set, the system named is AsPC-1. Put plainly: Cell proliferation inhibition, AsPC-1 (CellTiter-Glo 3D, 7 days). The settings on record: Homo sapiens, ASPC1, 168 h; AsPC-1, 7 days. The format is cell-based. The method in brief:
(§12)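 Cells exposed to compound (final DMSO 0.5%) in duplicate for 7 days at 37 °C, 5% CO2, then CellTiter-Glo 3D added with 20 min shaking and 2 h dark incubation before luminescence. Inhibition normalized to medium and blank controls; IC50, minimum and maximum inhibition from curve fits.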

A short description of the next data set: in vivo. The settings on record: male, ICR, mouse, po, 30 mg/kg.
For another data set, the system named is AGS. Kind of data set: Cell proliferation inhibition, AGS (CellTiter-Glo 3D, 7 days). It is filed as cell-based. The settings on record: Homo sapiens, 168 h. How it is done: • (a) Resuscitating cells in T75 cell culture flask: • (b) When the cell confluence reaches 80-90%, subculturing the cells.
The diluted test compound was added to a 384-well cell culture plate with a nanoliter pipetting system, and duplicate wells were set up. An equal volume of culture medium was added to the positive control group; and an equal volume of DMSO was added to the negative control group, then centrifugation was conducted at 1000 rpm for 1 min at room temperature.
Cells were inoculated into a) 384-well culture plate, with an equal volume of cells added to the negative control group, and only an equal volume of culture medium added to the positive control group. The plate was centrifuged at 1000 rpm for 1 min at room temperature, and the final DMSO concentration of the compound was 0.5% at last. The plate was placed in a 37° C., 5% CO2 constant temperature incubator for 7 days.
20 μL/well of CellTiter-Glo® 3D to b) was added to 384-well cell culture plate, and the plate was shook at 320 rpm for 20 min in the dark, and incubated at room temperature in the dark for 2 hrs.
The luminescence value was read using an Envision multi-functional microplate reader.
The inhibition rate (IR) of the test compound was calculated using the following formula: IR (%)=(1−(RLU compound−RLU blank control)/(RLU meidum control−RLU blank control))*100%. The inhibition rates of different concentrations of compounds were calculated in Excel, and then the inhibition curves were plotted and the related parameters (including the minimum inhibition rate, maximum inhibition rate and IC50) were calculated using GraphPad Prism software.

The subject of another data set is GP2D. Put plainly: Cell proliferation inhibition, GP2D (CellTiter-Glo 3D, 7 days). The format is cell-based. The settings on record: 168 h. The method in brief:
as §12

Data set [3] can be described thus: Pharmacokinetic test evaluation in mice, oral. The settings on record: male ICR mice, oral 30 mg/kg, plasma.
Description: (§13) Male ICR mice, weighing 22-24 g, were fasted overnight and orally administered with 30 mg/kg of a solution of the compound of the present invention or the control compound [10% DMSO+60% PEG400+30% aqueous solution]. Blood was collected at 0.25, 0.5, 1.0, 2.0, 4.0, 6.0, 8.0, 12.0 and 24 h after administration of the compound of the present invention respectively, and the concentration of the compound of the present invention or the control compound in plasma was determined by LC/MS/MS.

SMILES strings stand for the structures. A value given as a limit tells only on which side of the number the result lay.

Description for in vivo: as §13

In data set [1], `C#Cc1c(F)ccc2cc(O)cc(-c3ncc4c(N5C[C@H]6CC[C@@H](C5)N6)nc(OCC56CCCN5CC5(C6)CC5(F)F)nc4c3F)c12` (single isomer, unassigned) [Example 16A] registered an IC50 of 10.6 nM.

In data set [1], `C#Cc1c(F)ccc2cc(O)cc(-c3ncc4c(N5C[C@H]6CC[C@@H](C5)N6)nc(OCC56CCCN5CC5(C6)CC5(F)F)nc4c3F)c12` (single isomer, unassigned) [Example 16B] showed an IC50 of 3.34 nM.

On to `C#Cc1c(F)ccc2cc(O)cc(-c3ncc4c(N5C[C@H]6CC[C@@H](C5)N6)nc(OC[C@]56CCCN5[C@H](COC)CC6)nc4c3F)c12` [Example 1 Isomer 1A, 4-(4-((1R,5S)-3,8-diazabicyclo[3.2.1]octan-3-yl)-8-fluoro-2-((3S,7aR)-(3-(methoxymethyl)tetrahydro-1H-pyrrolizin-7a(5H)-yl)methoxy)pyridino[4,3-d]pyrimidin-7-yl)-5-ethynyl-6-fluoronaphthalen-2-ol], for which the IC50 came to 9.67 nM in data set [1] (Homo sapiens) and 2.6 nM in data set [2].

Take `C#Cc1c(F)ccc2cc(O)cc(-c3ncc4c(N5C[C@H]6CC[C@@H](C5)N6)nc(OC[C@@]56CCCN5[C@@H](COC)CC6)nc4c3F)c12` [Example 1 Isomer 1B, 4-(4-((1R,5S)-3,8-diazabicyclo[3.2.1]octan-3-yl)-8-fluoro-2-((3R,7aS)-(3-(methoxymethyl)tetrahydro-1H-pyrrolizin-7a(5H)-yl)methoxy)pyridino[4,3-d]pyrimidin-7-yl)-5-ethynyl-6-fluoronaphthalen-2-ol]: the IC50 was determined as 3.76 nM in data set [1] (Homo sapiens) and 2.1 nM in data set [2].

`C#Cc1c(F)ccc2cc(O)cc(-c3ncc4c(N5C[C@H]6CC[C@@H](C5)N6)nc(OC[C@]56CCCN5[C@@H](COC)CC6)nc4c3F)c12` [Example 1 Isomer 2A, 4-(4-((1R,5S)-3,8-diazabicyclo[3.2.1]octan-3-yl)-8-fluoro-2-((3R,7aR)-(3-(methoxymethyl)tetrahydro-1H-pyrrolizin-7a(5H)-yl)methoxy)pyridino[4,3-d]pyrimidin-7-yl)-5-ethynyl-6-fluoronaphthalen-2-ol] yielded an IC50 in data set [1] (Homo sapiens) of 19 nM.

In turn, `C#Cc1c(F)ccc2cc(O)cc(-c3ncc4c(N5C[C@H]6CC[C@@H](C5)N6)nc(OC[C@@]56CCCN5[C@H](COC)CC6)nc4c3F)c12` [Example 1 Isomer 2B, 4-(4-((1R,5S)-3,8-diazabicyclo[3.2.1]octan-3-yl)-8-fluoro-2-((3S,7aS)-(3-(methoxymethyl)tetrahydro-1H-pyrrolizin-7a(5H)-yl)methoxy)pyridino[4,3-d]pyrimidin-7-yl)-5-ethynyl-6-fluoronaphthalen-2-ol] displayed an IC50 in data set [1] (Homo sapiens) of 139 nM.

For the molecule `C#Cc1c(F)ccc2cc(O)cc(-c3ncc4c(N5CC6CCC(C5)N6)nc(OCC56CCCN5CC5(CC5)C6)nc4c3F)c12` [Example 9, 4-(4-(1R,5S)-3,8-diazabicyclo[3.2.1]octan-3-yl)-2-(dihydro-1′H,3′H-spiro[1,2′-pyrrolizin]-7a′(5′H)-yl)methoxy)-8-fluoropyridino[4,3-d]pyrimidin-7-yl)-5-ethynyl-6-fluoro-naphthalen-2-ol], the IC50 in data set [1] (Homo sapiens) was found to be 8.2 nM.

In the case of `Nc1cc(Cl)c(C(F)(F)F)c(-c2ncc3c(N4C[C@H]5CC[C@@H](C4)N5)nc(OC[C@@]45CCCN4C[C@@]4(CC4(F)F)C5)nc3c2F)c1` [Example 27, 3-(4-((1R,5S)-3,8-diazabicyclo[3.2.1]octan-3-yl)-2-(((1S,7a'S)-2,2-difluorodihydro-1′H,3′H-spiro[cyclopropan-1,2′-pyrrolizin]-7a′(5′H)-yl)methoxy)-8-fluoropyridino[4,3-d]pyrimidin-7-yl)-5-chloro-4-(trifluoromethyl)aniline], in the data set with AsPC-1, the IC50 is 4.14 nM. Also, in “in vivo”, the AUC(0-inf) turned out to be 5650 ng·h/mL, the AUC(0-t) turned out to be 5090 ng·h/mL, the highest level (Cmax) was 953 ng/mL and the Tmax was determined as 15 min. Moreover, the half-life in the data set “in vivo” was 559 min. The same molecule registered an IC50 with AGS of 5.24 nM. The molecule also gave an IC50 with GP2D of 0.38 nM.

As for `Nc1cc(F)c(Cl)c(-c2ncc3c(N4C[C@H]5CC[C@@H](C4)N5)nc(OC[C@@]45CCCN4C[C@@]4(CC4(F)F)C5)nc3c2F)c1Cl` [Example 37, 3-(4-((1R,5S)-3,8-diazabicyclo[3.2.1]octan-3-yl)-2-(((1S,7a'S)-2,2-difluorodihydro-1′H,3′H-spiro[cyclopropan-1,2′-pyrrolizin]-7a′(5′H)-yl)methoxy)-8-fluoropyridino[4,3-d]pyrimidin-7-yl)-2,4-dichloro-5-fluoroaniline], the IC50 with AsPC-1 is greater than 1000 nM; in the data set on AGS it was greater than 1000 nM; in the data set with GP2D, greater than 100 nM.

As for `Nc1cc(-c2ncc3c(N4C[C@H]5CC[C@@H](C4)N5)nc(OC[C@@]45CCCN4C[C@@]4(CC4(F)F)C5)nc3c2F)c(C(F)(F)F)c(Cl)c1F` [Example 41, 5-(4-((1R,5S)-3,8-diazabicyclo[3.2.1]octan-3-yl)-2-(((1S,7a'S)-2,2-difluorodihydro-1′H,3′H-spiro[cyclopropan-1,2′-pyrrolizin]-7a′(5′H)-yl)methoxy)-8-fluoropyridino[4,3-d]pyrimidin-7-yl)-3-chloro-2-fluoro-4-(trifluoromethyl)aniline], the IC50 in the data set with AsPC-1 was 14.2 nM; in the data set on AGS it was 16.6 nM; in the data set on GP2D, 1.41 nM.

With `Cc1c(F)c(N)cc(-c2ncc3c(N4C[C@H]5CC[C@@H](C4)N5)nc(OC[C@@]45CCCN4C[C@@]4(CC4(F)F)C5)nc3c2F)c1C(F)(F)F` [Example 42, 5-(4-((1R,5S)-3,8-diazabicyclo[3.2.1]octan-3-yl)-2-(((1S,7a'S)-2,2-difluorodihydro-1′H,3′H-spiro[cyclopropan-1,2′-pyrrolizin]-7a′(5′H)-yl)methoxy)-8-fluoropyridino[4,3-d]pyrimidin-7-yl)-2-fluoro-3-methyl-4-(trifluoromethyl)aniline], the figures for the IC50 in the data set on AsPC-1, with AGS and in the data set on GP2D were 8.83 nM, 13.9 nM and 0.68 nM, respectively.

For `N#Cc1c(N)ccc(Cl)c1-c1ncc2c(N3C[C@H]4CC[C@@H](C3)N4)nc(OC[C@@]34CCCN3C[C@@]3(CC3(F)F)C4)nc2c1F` [Example 51, 2-(4-((1R,5S)-3,8-diazabicyclo[3.2.1]octan-3-yl)-2-(((1S,7a'S)-2,2-difluorodihydro-1′H,3′H-spiro[cyclopropan-1,2′-pyrrolizin]-7a′(5′H)-yl)methoxy)-8-fluoropyridino[4,3-d]pyrimidin-7-yl)-6-amino-3-chlorobenzonitrile], the values for the IC50 in the data set with AsPC-1, in the data set with AGS and in the data set with GP2D were greater than 1000 nM, greater than 1000 nM and greater than 100 nM, respectively.

For `Cc1c(N)cnc(C(F)(F)F)c1-c1ncc2c(N3C[C@H]4CC[C@@H](C3)N4)nc(OC[C@@]34CCCN3C[C@@]3(CC3(F)F)C4)nc2c1F` [Example 54, 5-(4-((1R,5S)-3,8-diazabicyclo[3.2.1]octan-3-yl)-2-(((1S,7a'S)-2,2-difluorodihydro-1′H,3′H-spiro[cyclopropan-1,2′-pyrrolizin]-7a′(5′H)-yl)methoxy)-8-fluoropyridino[4,3-d]pyrimidin-7-yl)-4-methyl-6-(trifluoromethyl)pyridin-3-amine], the IC50 with AsPC-1 was greater than 1000 nM; in the data set with AGS, greater than 1000 nM; in the data set with GP2D it was greater than 100 nM.

`C#Cc1c(F)ccc2cc(O)cc(-c3ncc4c(N5CC6CCC(C5)N6)nc(OC[C@@]56CCCN5C[C@H](F)C6)nc4c3F)c12` [MRTX1133, reference compound]: inhibition in the data set on AsPC-1 was half-maximal at 6.77 nM (IC50). Moreover, in data set [3], the “AUC0-∞” value is listed as “BLOQ”, the AUC(0-t) result is recorded as “BLOQ” and the Cmax entry is “BLOQ”. The same molecule gave an IC50 in the data set with AGS of 5.15 nM. For the same molecule, in the data set with GP2D, 1.28 nM corresponded to half-maximal inhibition (IC50).
